Results from patent US11739098B2 (BRISTOL-MYERS SQUIBB COMPANY, priority 2017, dated 2023).
pIC50: −log10 of the molar value.

How the values were obtained:
Format in all cases: cell-based
[1] = molecular target: T1, human TLR7 (Homo sapiens, UniProt Q9NYK1); test: TLR7 inhibition reporter assay (HEK-Blue cells, SEAP reporter, gardiquimod stimulation); settings: HEK-Blue cells overexpressing human TLR7, SEAP reporter, gardiquimod 7.5 μM
T1 construct: host or cells: HEK-Blue cells (HEK293-derived reporter line)
T1 sequence (Q9NYK1 27-1049): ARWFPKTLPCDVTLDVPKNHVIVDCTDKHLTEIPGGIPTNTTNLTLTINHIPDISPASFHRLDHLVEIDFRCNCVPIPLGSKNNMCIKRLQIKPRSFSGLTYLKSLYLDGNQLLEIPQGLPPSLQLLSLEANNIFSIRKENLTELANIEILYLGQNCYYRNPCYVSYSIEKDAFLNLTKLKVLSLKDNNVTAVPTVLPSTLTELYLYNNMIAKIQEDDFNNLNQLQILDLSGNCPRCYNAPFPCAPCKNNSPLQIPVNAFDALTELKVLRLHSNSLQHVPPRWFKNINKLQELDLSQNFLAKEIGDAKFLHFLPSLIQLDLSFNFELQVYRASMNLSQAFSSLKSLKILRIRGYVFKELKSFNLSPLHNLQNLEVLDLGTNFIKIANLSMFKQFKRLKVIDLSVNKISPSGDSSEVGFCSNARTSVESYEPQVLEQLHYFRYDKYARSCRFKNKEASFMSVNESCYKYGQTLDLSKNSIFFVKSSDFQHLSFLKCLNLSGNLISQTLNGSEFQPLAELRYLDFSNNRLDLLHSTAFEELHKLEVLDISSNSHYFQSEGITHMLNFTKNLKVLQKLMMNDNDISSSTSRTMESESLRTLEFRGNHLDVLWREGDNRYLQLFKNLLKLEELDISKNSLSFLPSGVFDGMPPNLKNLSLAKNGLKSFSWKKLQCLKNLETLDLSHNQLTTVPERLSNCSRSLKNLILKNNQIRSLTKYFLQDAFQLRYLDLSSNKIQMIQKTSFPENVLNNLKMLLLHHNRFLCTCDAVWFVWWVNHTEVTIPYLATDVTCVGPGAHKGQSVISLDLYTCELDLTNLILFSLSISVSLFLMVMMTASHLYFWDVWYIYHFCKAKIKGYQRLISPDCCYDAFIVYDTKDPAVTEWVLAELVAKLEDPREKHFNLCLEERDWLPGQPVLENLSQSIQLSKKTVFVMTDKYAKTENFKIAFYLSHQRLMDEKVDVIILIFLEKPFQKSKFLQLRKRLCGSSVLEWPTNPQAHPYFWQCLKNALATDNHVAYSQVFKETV
In short: (§1)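 HEK-Blue cells overexpressing human TLR7, TLR8 or TLR9 (NF-κB/AP-1-driven SEAP) pre-treated 30 min at room temperature with compound (0.05 nM–50 μM), then stimulated with gardiquimod 7.5 μM (TLR7), R848 15.9 μM (TLR8) or ODN2006 5 nM (TLR9). SEAP read colorimetrically after 22 h at 37 °C; % inhibition calculated.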

[2] = molecular target: T2, human TLR8 (Homo sapiens, UniProt Q9NR97); test: TLR8 inhibition reporter assay (HEK-Blue cells, SEAP reporter, R848 stimulation); settings: HEK-Blue cells overexpressing human TLR8, SEAP reporter, R848 15.9 μM
T2 construct: host or cells: HEK-Blue cells (HEK293-derived reporter line)
T2 sequence (Q9NR97 27-1041): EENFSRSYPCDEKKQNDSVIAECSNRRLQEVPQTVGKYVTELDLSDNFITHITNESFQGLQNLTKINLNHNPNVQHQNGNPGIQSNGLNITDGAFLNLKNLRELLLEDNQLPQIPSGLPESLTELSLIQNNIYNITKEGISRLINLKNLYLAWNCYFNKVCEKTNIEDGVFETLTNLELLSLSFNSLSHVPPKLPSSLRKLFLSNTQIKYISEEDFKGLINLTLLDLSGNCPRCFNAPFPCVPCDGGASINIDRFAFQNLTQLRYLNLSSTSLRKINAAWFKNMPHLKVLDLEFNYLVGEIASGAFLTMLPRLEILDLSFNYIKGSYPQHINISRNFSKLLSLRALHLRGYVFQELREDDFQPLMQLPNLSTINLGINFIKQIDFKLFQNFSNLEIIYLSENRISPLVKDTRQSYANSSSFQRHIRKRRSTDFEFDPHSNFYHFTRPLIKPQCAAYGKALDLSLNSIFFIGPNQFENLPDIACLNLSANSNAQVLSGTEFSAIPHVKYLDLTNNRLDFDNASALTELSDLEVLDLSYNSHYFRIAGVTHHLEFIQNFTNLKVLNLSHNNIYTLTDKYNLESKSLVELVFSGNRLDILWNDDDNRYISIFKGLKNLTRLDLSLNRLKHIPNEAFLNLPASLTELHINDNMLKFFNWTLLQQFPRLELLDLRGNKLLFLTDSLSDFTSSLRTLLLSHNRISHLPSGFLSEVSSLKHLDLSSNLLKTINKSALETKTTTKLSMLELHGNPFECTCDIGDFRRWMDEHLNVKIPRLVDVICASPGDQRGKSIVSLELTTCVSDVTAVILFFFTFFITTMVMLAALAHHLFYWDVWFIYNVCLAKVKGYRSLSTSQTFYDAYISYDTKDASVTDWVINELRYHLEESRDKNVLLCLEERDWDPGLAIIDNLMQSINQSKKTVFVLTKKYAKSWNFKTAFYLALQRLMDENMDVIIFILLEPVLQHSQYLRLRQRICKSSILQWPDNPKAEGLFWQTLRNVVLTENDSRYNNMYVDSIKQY
In short: as §1

[3] = molecular target: T3, human TLR9 (Homo sapiens, UniProt Q9NR96); test: TLR9 inhibition reporter assay (HEK-Blue cells, SEAP reporter, ODN2006 stimulation); settings: HEK-Blue cells overexpressing human TLR9, SEAP reporter, ODN2006 5 nM
T3 construct: host or cells: HEK-Blue cells (HEK293-derived reporter line)
T3 sequence (Q9NR96 26-1032): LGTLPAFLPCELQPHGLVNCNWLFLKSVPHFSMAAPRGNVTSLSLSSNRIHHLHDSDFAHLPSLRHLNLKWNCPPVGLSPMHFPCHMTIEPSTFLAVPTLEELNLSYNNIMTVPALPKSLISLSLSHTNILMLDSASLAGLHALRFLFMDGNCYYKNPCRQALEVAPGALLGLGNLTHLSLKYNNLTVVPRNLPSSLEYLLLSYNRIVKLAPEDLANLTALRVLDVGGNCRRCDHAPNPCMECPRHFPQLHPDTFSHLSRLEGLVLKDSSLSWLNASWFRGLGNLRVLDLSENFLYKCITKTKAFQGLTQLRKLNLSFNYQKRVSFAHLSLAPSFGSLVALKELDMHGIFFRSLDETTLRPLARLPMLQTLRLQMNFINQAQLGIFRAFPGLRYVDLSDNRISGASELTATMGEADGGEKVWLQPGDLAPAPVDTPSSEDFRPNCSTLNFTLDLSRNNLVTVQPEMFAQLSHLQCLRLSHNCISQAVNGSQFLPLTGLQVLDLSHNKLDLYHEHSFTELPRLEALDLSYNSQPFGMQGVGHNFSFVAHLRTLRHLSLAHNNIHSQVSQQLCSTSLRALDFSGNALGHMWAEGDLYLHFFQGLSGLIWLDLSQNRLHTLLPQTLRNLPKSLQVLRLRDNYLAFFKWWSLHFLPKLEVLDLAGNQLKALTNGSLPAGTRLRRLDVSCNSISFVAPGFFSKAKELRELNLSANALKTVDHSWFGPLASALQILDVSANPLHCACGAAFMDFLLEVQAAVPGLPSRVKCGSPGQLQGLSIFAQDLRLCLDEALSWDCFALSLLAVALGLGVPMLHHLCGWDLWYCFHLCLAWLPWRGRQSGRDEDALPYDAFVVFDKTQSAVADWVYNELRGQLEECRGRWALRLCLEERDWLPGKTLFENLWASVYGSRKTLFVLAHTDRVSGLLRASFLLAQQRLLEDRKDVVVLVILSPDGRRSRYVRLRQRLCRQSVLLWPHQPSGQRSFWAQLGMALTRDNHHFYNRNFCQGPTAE
In short: as §1

SMILES	pIC50 [1]	pIC50 [2]	pIC50 [3]
CC(C)c1c(-c2cnc3ccnn3c2)[nH]c2ccc(C3CCNCC3)cc12 [Example 181, 6-(3-isopropyl-5-(piperidin-4-yl)-1H-indol-2-yl)pyrazolo[1,5-a]pyrimidine]	4.30 to 6.00	< 5.51	4.30 to 6.00
CC(C)c1c(-c2ccnc3[nH]ncc23)[nH]c2ccc(C3CCN(C(=O)c4cc[nH]n4)CC3)cc12 [Example 615, (4-(3-isopropyl-2-(1H-pyrazolo[3,4-b]pyridin-4-yl)-1H-indol-5-yl)piperidin-1-yl)(1H-pyrazol-3-yl)methanone]	6.00 to 7.00	6.00 to 7.00	4.30 to 6.00
CC(C)c1c(-c2nc3c(s2)CNCC3)[nH]c2ccc(C3CCNCC3)cc12 [Example 208, 2-(3-isopropyl-5-(piperidin-4-yl)-1H-indol-2-yl)-4,5,6,7-tetrahydrothiazolo[5,4-c]pyridine]	4.30 to 6.00	4.30 to 6.00	> 7.00
CCc1c(-c2cnc3cnccn23)[nH]c2ccc(C3CCNCC3)cc12 [Example 28, 3-(3-ethyl-5-(piperidin-4-yl)-1H-indol-2-yl)imidazo[1,2-a]pyrazine]	4.30 to 6.00	4.30 to 6.00	6.00 to 7.00
Cc1cc(-c2[nH]c3ccc(C4CCN(CCS(C)(=O)=O)CC4)cc3c2C(C)C)cn2nnnc12 [Example 789, 6-(3-isopropyl-5-(1-(2-(methylsulfonyl)ethyl)piperidin-4-yl)-1H-indol-2-yl)-8-methyltetrazolo[1,5-a]pyridine]	> 7.00	> 7.00	4.30 to 6.00
COc1cc(-c2[nH]c3ccc(C4CCN(CCNS(C)(=O)=O)CC4)cc3c2C(C)C)nn2ncnc12 [Example 652, N-(2-(4-(3-isopropyl-2-(8-methoxy-[1,2,4]triazolo[1,5-b]pyridazin-6-yl)-1H-indol-5-yl)piperidin-1-yl)ethyl)methanesulfonamide]	> 7.00	> 7.00	4.30 to 6.00
CC(C)c1c(-c2ccnc3c2CC(=O)N3)[nH]c2ccc(C3CCNCC3)cc12 [Example 69, 4-(3-isopropyl-5-(piperidin-4-yl)-1H-indol-2-yl)-1,3-dihydro-2H-pyrrolo[2,3-b]pyridin-2-one]	6.00 to 7.00	> 7.00	6.00 to 7.00

The next lines start with the values.

pIC50 [1]	pIC50 [2]	pIC50 [3]	SMILES
> 7.00	> 7.00	4.30 to 6.00	CC(C)c1c(-c2ccnc3[nH]ncc23)[nH]c2ccc(C3CCN(C(=O)C[C@H](C)N)CC3)cc12 [Example 637, (S)-3-amino-1-(4-(3-isopropyl-2-(1H-pyrazolo[3,4-b]pyridin-4-yl)-1H-indol-5-yl)piperidin-1-yl)butan-1-one]
> 7.00	6.00 to 7.00	4.30 to 6.00	Cc1cc(-c2[nH]c3ccc(C4CCN(C5COC5)CC4)cc3c2C(C)C)c2ccccc2n1 [Example 725, 4-(3-isopropyl-5-(1-(oxetan-3-yl)piperidin-4-yl)-1H-indol-2-yl)-2-methylquinoline]
> 7.00	6.00 to 7.00	4.30 to 6.00	CNCC(=O)N1CCC(c2ccc3[nH]c(-c4cnc5ncnn5c4)c(C(C)C)c3c2)CC1 [Example 555, 1-(4-(2-([1,2,4]triazolo [1,5-a]pyrimidin-6-yl)-3-isopropyl-1H-indol-5-yl)piperidin-1-yl)-2-(methylamino)ethan-1-one]
> 7.00	> 7.00	6.00 to 7.00	CC(C)c1c(-c2ccc3[nH]nnc3c2)[nH]c2ccc(C3CCNCC3)cc12 [Example 51, 5-(3-isopropyl-5-(piperidin-4-yl)-1H-indol-2-yl)-1H-benzo[d][1,2,3]triazole]
> 7.00	> 7.00	4.30 to 6.00	Cc1cc(-c2[nH]c3ccc(C4CCN(C5COC5)CC4)cc3c2C(C)C)cc2cnnn12 [Example 744, 5-(3-isopropyl-5-(1-(oxetan-3-yl)piperidin-4-yl)-1H-indol-2-yl)-7-methyl-[1,2,3]triazolo[1,5-a]pyridine]
> 7.00	> 7.00	6.00 to 7.00	CC(C)c1c(-c2ccnc3[nH]ncc23)[nH]c2ccc(C3CCN(Cc4ccc(N5CCN(C)CC5)cc4)CC3)cc12 [Example 919, 4-(3-isopropyl-5-(1-(4-(4-methylpiperazin-1-yl)benzyl)piperidin-4-yl)-1H-indol-2-yl)-1H-pyrazolo[3,4-b]pyridine]
> 7.00	> 7.00	6.00 to 7.00	CNCCN1CCC(c2ccc3[nH]c(-c4ccnc5[nH]ncc45)c(C(C)C)c3c2)C(F)(F)C1 (stereo not drawn) [Example 674, 2-(3,3-difluoro-4-(3-isopropyl-2-(1H-pyrazolo[3,4-b]pyridin-4-yl)-1H-indol-5-yl)piperidin-1-yl)-N-methylethan-1-amine]
> 7.00	> 7.00	4.30 to 6.00	CC(C)c1c(-c2ccc(C#N)c3ncccc23)[nH]c2ccc(C3CCN(C(=O)CN(C)C)CC3)cc12 [Example 506, 5-(5-(1-(dimethylglycyl)piperidin-4-yl)-3-isopropyl-1H-indol-2-yl)quinoline-8-carbonitrile]
